Here are results for one compound from ChEMBL document CHEMBL5465560, “Selectivity Literature for EUbOPEN Chemogenomic Library” (2024).

Holding throughout (settings): at 1 µM
The test system of assay [1] is T1, Receptor-type tyrosine-protein kinase FLT3 (Homo sapiens), P36888 [D835V].
T1 sequence (whole entry): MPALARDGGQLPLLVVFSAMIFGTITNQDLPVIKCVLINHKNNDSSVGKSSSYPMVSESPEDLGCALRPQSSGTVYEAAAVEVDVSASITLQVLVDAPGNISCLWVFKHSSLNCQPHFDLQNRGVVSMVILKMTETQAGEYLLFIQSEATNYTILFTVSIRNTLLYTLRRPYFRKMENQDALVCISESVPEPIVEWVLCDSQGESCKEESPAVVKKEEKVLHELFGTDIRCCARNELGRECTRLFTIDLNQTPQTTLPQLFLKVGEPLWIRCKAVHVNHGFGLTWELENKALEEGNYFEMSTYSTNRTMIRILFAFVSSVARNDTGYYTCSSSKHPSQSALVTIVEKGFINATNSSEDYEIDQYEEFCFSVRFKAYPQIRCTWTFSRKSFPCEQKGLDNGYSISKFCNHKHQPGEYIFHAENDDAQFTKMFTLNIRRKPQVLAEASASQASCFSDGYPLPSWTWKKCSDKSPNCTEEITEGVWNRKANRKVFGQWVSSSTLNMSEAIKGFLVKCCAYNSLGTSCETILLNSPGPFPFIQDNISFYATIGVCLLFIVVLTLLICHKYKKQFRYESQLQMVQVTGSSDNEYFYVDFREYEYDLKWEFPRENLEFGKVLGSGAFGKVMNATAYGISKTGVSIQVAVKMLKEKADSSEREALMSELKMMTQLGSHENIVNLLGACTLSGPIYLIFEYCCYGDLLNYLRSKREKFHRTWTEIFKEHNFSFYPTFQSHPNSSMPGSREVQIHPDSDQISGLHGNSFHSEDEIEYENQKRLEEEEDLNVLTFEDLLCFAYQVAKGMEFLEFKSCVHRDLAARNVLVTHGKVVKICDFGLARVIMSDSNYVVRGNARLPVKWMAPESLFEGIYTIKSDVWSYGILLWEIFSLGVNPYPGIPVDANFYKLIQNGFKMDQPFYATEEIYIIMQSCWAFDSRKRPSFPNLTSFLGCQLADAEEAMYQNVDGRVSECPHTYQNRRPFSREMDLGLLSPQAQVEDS
In words: (§1) Selectivity interaction (KinomeScan (DiscoverX)) EUB0001079a FLT3.

The subject of assay [2] is Receptor-type tyrosine-protein kinase FLT3 (Homo sapiens), P36888 [UNDEFINED MUTATION]. The description is as §1.
For assay [3], the system named is T2, Receptor-type tyrosine-protein kinase FLT3 (Homo sapiens), P36888 [D835Y].
T2 sequence (whole entry): T1 sequence (whole entry) with V835Y
The assay is described as §1.

The subject of assay [4] is T3, Receptor-type tyrosine-protein kinase FLT3 (Homo sapiens), P36888 [D835H].
T3 sequence (whole entry): T1 sequence (whole entry) with V835H
The assay is described as §1.

Structures are written as SMILES. Positions count from the first letter of the chain named.

Consider `Nc1cnc(N2CCc3cc(S(=O)(=O)Nc4c(F)cc(Cl)cc4F)cc(N4CCCC4=O)c32)nc1` [TP-020n], for which the % of control in assay [1] was 100%; in assay [2] it was 92%; in assay [3] it was 100%; in assay [4] it was 100%.
